Measurements reported in patent US10017527B2, “KLK4 inhibitors” (Universiteit Antwerpen, priority 2014, dated 2018).
Read-outs that look alike come from different tables or passages of the source.

Assays:
Type in all cases: biochemical
uPA (recombinant) = target: T1, uPA (recombinant) (Homo sapiens, UniProt P00749); assay: uPA inhibition, chromogenic substrate Biophen CS-61(44)
T1 construct: purchased Nodia

KLK8 (human) = target: T2, KLK8 (human) (Homo sapiens, UniProt O60259); assay: KLK8 inhibition, fluorogenic substrate Boc-Val-Pro-Arg-AMC
T2 construct: purchased Viktor Magdolen, TUMunich (TUM), supplied by an academic laboratory
T2 sequence (O60259 33-260): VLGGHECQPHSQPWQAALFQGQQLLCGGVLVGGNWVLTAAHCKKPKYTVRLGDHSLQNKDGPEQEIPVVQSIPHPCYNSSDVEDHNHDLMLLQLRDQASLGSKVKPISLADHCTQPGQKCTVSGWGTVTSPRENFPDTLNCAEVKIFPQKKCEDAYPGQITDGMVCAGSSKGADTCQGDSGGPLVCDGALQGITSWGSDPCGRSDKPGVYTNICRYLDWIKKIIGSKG
Excerpt: (§1) The IC50 values For KLK1, KLK2 and KLK8 were obtained in a similar way. For plasmin, tPA, thrombin, Fxa, HNE, Plasma kallikrein Chromogenic substrates were used (absorption: 405 nm). (KLK2, KLK4, KLK8 were supplied by Viktor Magdolen TUMunich (TUM)).

KLK4 [1] = target: T3, KLK4 (Homo sapiens, UniProt Q9Y5K2); assay: KLK4 inactivation kinetics from progress curves (kobs vs inhibitor concentration)
T3 construct: purchased Viktor Magdolen (TUM), supplied by an academic laboratory
T3 sequence (Q9Y5K2 31-254): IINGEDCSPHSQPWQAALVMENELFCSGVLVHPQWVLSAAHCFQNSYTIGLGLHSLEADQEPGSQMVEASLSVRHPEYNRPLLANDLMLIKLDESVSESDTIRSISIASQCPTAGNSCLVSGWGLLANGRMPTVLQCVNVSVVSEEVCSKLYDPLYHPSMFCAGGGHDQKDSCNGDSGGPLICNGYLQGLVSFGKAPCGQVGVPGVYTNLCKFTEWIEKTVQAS
Procedure: (§2) Inhibitor stock solutions were prepared in DMSO and stored at −20° C. Because the compounds described in this paper completely inactivate KLK4 following pseudo first-order kinetics, the IC50 value is inversely correlated with the second-order rate constant of inactivation. For a simple pseudo first-order inactivation process, the activity after incubation with inhibitor (vi) varies with the inhibitor concentration (i), as described in the following equation: vi=v0×e^−k t, where vo is the activity in absence of inhibitor, k is the second-order rate constant of inactivation, and t is the time. The inactivation rate constant was determined from the time course of inhibition.
The inhibitor was mixed with the substrate (250 μM final concentration), and the buffer solution with the enzyme was added at the time zero. […] The progress curves show the absorbance of aminomethylcoumarine produced as a function of time. Initially, no inhibitor is bound to the enzyme, and the tangent to the progress curve (dA/dt) is proportional to the concentration of the free enzyme. The concentration of free enzyme decreases over time due to the kinetics of inhibitor binding, as described above. Progress curves were recorded in pseudo first-order conditions ([I]0>>[E]0) and with less than 10% conversion of the substrate during the entire time course. In these conditions, dA/dt decreases exponentially with time. The progress curves were fitted with the integrated rate equation to yield a value for kobs, a pseudofirst-order rate constant At=v0[1−e^−k^obs^t]/kobs+A0 where At=absorbance at time t, A0=absorbance at time zero, and v0=uninhibited initial rate.
The apparent second-order rate constant (kapp) was calculated from the slope of the linear part of the plot of kobs versus the inhibitor concentration ([I]0). In case of competition between the inhibitor and the substrate, kapp is smaller than the “real” second order rate constant k discussed above because a certain fraction of the enzyme is present as an enzyme-substrate complex. kapp depends on the substrate concentration used in the experiment, as described by Lambeir et al. (Lambeir, Borloo et al. 1996).

Thrombine (human plasma) = target: T4, Thrombine (human plasma) (Homo sapiens, UniProt P00734); assay: Thrombin inhibition, chromogenic substrate Biophen CS-21(66)
T4 construct: purchased Sigma-Aldrich; host or cells: human plasma

KLK1 (human) = target: T5, KLK1 (human) (Homo sapiens, UniProt P06870); assay: KLK1 inhibition, fluorogenic substrate H-Pro-Phe-Arg-AMC
T5 construct: purchased Prospec
T5 sequence (P06870 25-262): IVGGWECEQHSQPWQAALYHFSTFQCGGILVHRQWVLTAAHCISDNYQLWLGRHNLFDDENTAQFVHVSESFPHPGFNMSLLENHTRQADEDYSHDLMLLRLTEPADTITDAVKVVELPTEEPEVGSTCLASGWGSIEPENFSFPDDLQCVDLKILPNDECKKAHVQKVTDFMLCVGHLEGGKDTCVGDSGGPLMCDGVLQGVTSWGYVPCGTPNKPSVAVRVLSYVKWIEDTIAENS
Excerpt: as §1

[2] = target: T6, Neurtophil Elastase(human) (Homo sapiens, UniProt P08246); assay: Neutrophil elastase inhibition, chromogenic substrate MeOSuc-Ala-Ala-Pro-Val-pNA
T6 construct: purchased Enzo-life sciences
T6 sequence (P08246 30-267): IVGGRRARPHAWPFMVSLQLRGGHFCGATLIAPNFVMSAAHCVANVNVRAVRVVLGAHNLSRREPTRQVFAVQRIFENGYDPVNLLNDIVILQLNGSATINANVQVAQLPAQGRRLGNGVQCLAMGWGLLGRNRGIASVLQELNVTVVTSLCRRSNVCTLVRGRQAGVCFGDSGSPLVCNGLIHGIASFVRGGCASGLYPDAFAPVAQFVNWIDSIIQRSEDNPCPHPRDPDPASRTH
Excerpt: as §1

PlasmaKLK (human plasma) = target: T7, PlasmaKLK (human plasma) (Homo sapiens, UniProt P03952); assay: Plasma kallikrein inhibition, chromogenic substrate Biophen CS-31(02)
T7 construct: purchased Sigma-Aldrich; host or cells: human plasma
T7 sequence (P03952 391-638 limits assumed): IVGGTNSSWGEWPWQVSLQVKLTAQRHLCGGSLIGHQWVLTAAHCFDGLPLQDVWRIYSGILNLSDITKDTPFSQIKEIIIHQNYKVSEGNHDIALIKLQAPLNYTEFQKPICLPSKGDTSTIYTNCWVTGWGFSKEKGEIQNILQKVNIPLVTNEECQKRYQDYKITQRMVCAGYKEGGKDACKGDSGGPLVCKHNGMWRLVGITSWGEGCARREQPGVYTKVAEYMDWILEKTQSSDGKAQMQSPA
T7 sequence (P03952 20-390 partner limits assumed): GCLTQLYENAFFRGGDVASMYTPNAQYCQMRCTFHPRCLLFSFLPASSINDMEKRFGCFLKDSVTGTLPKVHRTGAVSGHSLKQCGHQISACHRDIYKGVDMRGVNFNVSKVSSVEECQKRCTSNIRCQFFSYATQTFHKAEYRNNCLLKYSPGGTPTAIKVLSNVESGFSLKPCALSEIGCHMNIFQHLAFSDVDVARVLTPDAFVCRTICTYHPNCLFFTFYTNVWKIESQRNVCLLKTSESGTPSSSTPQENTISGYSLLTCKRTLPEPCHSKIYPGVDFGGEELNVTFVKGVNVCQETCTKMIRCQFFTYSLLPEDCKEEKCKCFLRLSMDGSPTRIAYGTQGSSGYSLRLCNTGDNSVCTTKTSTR
Excerpt: as §1

FXa = target: T8, FXa (Homo sapiens, UniProt P00742); assay: FXa inhibition, chromogenic substrate Biophen CS-11(32)
T8 construct: purchased Nodia
T8 sequence (P00742 235-488 limits assumed): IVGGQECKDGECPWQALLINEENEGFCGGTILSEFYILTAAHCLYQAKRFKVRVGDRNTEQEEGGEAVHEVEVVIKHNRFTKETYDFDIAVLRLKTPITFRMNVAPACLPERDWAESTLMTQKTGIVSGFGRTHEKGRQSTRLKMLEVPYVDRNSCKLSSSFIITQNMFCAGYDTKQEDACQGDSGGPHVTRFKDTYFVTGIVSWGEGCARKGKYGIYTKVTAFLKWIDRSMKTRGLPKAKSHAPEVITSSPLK
T8 sequence (P00742 41-179 partner limits assumed): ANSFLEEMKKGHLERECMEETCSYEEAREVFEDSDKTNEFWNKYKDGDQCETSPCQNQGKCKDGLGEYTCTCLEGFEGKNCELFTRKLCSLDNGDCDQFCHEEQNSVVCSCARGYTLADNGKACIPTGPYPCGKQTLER
Excerpt: as §1

Plasmine (human plasma) = target: T9, Plasmine (human plasma) (Homo sapiens, UniProt P00747); assay: Plasmin inhibition, chromogenic substrate Biophen CS-21(66)
T9 construct: purchased Sigma-Aldrich; host or cells: human plasma
T9 sequence (P00747 581-810 limits assumed): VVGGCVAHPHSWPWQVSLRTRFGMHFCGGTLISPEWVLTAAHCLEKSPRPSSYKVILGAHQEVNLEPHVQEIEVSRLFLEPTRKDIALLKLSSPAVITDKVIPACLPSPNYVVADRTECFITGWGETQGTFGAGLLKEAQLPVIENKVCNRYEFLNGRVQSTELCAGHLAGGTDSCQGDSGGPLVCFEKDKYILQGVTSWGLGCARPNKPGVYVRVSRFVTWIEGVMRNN
T9 sequence (P00747 98-580 partner limits assumed): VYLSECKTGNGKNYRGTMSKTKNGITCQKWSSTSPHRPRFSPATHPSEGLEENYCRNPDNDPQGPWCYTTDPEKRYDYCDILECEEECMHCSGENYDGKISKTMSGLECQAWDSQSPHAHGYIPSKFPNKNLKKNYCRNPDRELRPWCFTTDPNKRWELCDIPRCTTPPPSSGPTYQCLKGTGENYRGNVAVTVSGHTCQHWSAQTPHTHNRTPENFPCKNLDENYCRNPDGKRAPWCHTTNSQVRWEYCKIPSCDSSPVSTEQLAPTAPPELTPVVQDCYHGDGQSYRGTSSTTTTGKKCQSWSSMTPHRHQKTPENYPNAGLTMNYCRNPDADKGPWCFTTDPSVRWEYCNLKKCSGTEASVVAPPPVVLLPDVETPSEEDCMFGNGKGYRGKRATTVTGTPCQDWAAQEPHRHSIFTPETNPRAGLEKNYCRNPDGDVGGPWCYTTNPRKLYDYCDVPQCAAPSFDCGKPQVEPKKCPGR
Excerpt: as §1

tPA (recombinant) = target: T10, tPA (recombinant) (Homo sapiens, UniProt P00750); assay: tPA inhibition, chromogenic substrate Biophen CS-05(88)
T10 construct: purchased Nodia
T10 sequence (P00750 36-562, species assumed): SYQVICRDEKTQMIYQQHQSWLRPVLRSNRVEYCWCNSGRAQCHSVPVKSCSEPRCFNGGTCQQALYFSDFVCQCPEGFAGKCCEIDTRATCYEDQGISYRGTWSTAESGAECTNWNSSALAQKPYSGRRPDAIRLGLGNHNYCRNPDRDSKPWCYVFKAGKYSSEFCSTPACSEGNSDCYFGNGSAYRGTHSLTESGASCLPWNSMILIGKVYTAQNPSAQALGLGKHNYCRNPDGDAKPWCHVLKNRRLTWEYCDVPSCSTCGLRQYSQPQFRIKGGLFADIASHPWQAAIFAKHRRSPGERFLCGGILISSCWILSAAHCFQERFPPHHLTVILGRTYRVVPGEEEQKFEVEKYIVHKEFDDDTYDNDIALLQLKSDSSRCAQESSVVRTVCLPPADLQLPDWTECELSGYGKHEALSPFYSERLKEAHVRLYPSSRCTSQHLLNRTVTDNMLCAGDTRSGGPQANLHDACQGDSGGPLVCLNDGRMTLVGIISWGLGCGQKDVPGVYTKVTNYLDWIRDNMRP
Excerpt: as §1

AcHE = AcHE (Homo sapiens, UniProt P22303); assay: AcHE inhibition
Sequence of AcHE (P22303 32-614): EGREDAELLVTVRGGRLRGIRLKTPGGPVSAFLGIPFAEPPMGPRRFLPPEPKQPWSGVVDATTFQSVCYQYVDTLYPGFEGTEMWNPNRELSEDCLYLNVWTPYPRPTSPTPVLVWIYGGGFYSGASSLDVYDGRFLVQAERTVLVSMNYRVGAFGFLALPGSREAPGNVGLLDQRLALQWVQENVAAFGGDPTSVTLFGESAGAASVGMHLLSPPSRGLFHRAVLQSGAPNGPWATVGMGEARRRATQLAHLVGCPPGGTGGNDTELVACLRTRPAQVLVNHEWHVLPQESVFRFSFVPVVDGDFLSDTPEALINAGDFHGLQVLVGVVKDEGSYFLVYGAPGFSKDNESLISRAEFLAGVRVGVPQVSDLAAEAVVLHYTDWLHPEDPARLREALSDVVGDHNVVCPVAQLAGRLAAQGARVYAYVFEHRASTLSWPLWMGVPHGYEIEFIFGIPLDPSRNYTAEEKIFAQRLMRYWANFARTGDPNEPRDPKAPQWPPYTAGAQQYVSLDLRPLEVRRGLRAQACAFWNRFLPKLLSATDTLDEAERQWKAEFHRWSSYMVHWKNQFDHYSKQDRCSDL

KLK4 [3] = target: T3, KLK4; assay: KLK4 enzymatic inhibition, fluorogenic substrate Boc-Val-Pro-Arg-AMC
Procedure: The substrate was obtained form Bachem and the enzyme was provided by Viktor Magdolen (TUM). The reaction was monitored with an excitation wavelength of 355 nm and emission wavelength of 460 nm. The initial rate was determined between 2500000 and 4500000 mRFU/min. The reaction mixture contained 25 μM substrate and approximately 1 mU of enzyme in 145 μL of buffer in a final volume of […]. A 50 mM Tris buffer, pH 8.3, was used. From each inhibitor concentration, 5 μL was added, obtaining a final concentration from 0 to 250 μM in a total volume of 0.2 mL. Activity measurements were routinely performed in duplicate. […] IC50 values were obtained by fitting the data with the four-parameter logistics equation using Grafit 7.
[formula] where s=slope factor, v=rate, I0=inhibitor concentration, and range=the fitted uninhibited value minus the background. The equation assumes they falls with increasing x.
as §2

Matriptase = target: T11, Matriptase (Homo sapiens, UniProt Q9Y5Y6); assay: Matriptase inhibition
T11 sequence (Q9Y5Y6 1-855): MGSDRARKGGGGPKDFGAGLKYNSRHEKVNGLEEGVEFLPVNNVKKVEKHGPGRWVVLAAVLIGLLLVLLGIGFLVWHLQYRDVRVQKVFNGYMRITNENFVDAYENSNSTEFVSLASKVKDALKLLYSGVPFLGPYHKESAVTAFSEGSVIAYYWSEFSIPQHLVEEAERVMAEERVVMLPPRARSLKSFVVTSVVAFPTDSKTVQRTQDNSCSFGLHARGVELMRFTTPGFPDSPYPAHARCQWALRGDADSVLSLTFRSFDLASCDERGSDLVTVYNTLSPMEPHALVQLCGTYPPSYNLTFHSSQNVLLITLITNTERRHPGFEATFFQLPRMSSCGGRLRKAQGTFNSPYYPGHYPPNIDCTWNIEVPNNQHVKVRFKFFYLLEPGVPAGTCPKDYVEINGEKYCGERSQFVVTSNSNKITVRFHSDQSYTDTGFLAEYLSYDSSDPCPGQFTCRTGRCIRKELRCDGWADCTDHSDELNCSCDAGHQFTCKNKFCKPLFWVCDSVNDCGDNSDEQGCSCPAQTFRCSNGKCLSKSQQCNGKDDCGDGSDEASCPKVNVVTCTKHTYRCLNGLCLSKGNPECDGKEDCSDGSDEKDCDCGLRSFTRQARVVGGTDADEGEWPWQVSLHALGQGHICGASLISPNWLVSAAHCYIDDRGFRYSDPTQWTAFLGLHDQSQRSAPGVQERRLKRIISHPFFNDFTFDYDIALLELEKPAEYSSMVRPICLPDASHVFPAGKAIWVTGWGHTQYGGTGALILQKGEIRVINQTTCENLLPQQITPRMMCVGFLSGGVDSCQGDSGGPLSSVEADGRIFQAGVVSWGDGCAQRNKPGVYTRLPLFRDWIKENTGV

KLK2 (human) = target: T12, KLK2 (human) (Homo sapiens, UniProt P20151); assay: KLK2 inhibition, fluorogenic substrate H-Pro-Phe-Arg-AMC
T12 construct: purchased Viktor Magdolen, TUMunich (TUM), supplied by an academic laboratory
T12 sequence (P20151 25-261): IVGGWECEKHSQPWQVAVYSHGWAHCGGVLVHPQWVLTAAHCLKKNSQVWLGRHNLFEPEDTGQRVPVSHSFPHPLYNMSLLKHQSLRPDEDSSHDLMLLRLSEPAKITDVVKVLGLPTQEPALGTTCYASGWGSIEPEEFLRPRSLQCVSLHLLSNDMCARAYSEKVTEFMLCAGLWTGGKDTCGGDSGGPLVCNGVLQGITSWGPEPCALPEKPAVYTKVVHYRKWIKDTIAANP
Excerpt: as §1

[4] = Tris buffer pH 8.8, read-out: IC50 uPA
[5] = Thrombin, Tris buffer pH 8.3, read-out: IC50 THR
[6] = Tris buffer pH 7.8, read-out: IC50 HNE
[7] = Plasma KLK, Tris buffer pH 7.8, read-out: IC50 pKLK
[8] = Tris buffer pH 8.3, read-out: IC50 FXa
[9] = Plasmin, Tris buffer pH 7.4, read-out: IC50 PLM
[10] = Tris buffer pH 8.3, read-out: IC50 tPA
[11] = 15 min pre-incubation at 37° C., Tris buffer pH 8.3, read-out: IC50 KLK4

Row | Compound | IC50 (uPA (recombinant); [4]) [µM] | IC50 (Thrombine (human plasma); [5]) [µM] | IC50 [2, 6] [µM] | IC50 (PlasmaKLK (human plasma); [7]) [µM] | IC50 (FXa; [8]) [µM] | IC50 (Plasmine (human plasma); [9]) [µM] | IC50 (tPA (recombinant); [10]) [µM] | IC50 (KLK4 [3]; [11]) [µM] | IC50 (uPA (recombinant)) [µM] | IC50 (KLK8 (human)) [µM] | IC50 (Thrombine (human plasma)) [µM] | IC50 (KLK1 (human)) [µM] | IC50 [2] [µM] | IC50 (PlasmaKLK (human plasma)) [µM] | IC50 (FXa) [µM] | IC50 (Plasmine (human plasma)) [µM] | IC50 (tPA (recombinant)) [µM] | IC50 (AcHE) [µM] | IC50 (KLK4 [3]) [µM] | IC50 (Matriptase) [µM] | also measured
1 | 2-((1E,3E,5Z)-5-(1-(6-((2-(4-(1-(diphenoxyphosphoryl)-1-(4-guanidinophenyl)-3-oxo-4,7,10-trioxa-2-azaundecan-11-yl)-1H-1,2,3-triazol-1-yl)ethyl)amino)-6-oxohexyl)-3,3-dimethylindolin-2-ylidene)penta-1,3-dien-1-yl)-1,3,3-trimethyl-3H-indol-1-ium [Compound 134] | 2.5 to 10 | 10 to 250 | 10 to 250 | 10 to 250 | 2.5 to 10 | 10 to 250 | > 250 | 0.1 to 1 | – | – | – | – | – | – | – | – | – | – | – | – | IC50 (KLK8 (human); Tris buffer pH 8, read-out: IC50 KLK8): 2.5 to 10 µM; kapp KLK4 (KLK4 [1]; apparent second-order rate constant, substrate 250 μM): 2240 M⁻¹ s⁻¹; Irreversible (KLK4) (KLK4 [1]; irreversible binding to KLK4, Yes/No): Yes/; IC50 (KLK1 (human); Tris buffer pH 7.8, read-out: IC50 KLK1): 2.5 to 10 µM; IC50 (AcHE; read-out: IC50 AcHE): 10 to 250 µM; IC50 (Matriptase; Matriptase, read-out: IC50 MAT): 2.5 to 10 µM
2 | COCCOC(=O)NC(c1ccc(NC(=N)N)cc1)P(=O)(Oc1ccccc1)Oc1ccccc1 (stereo not drawn) [Compound 29, 2-methoxyethyl ((diphenoxyphosphoryl)(4-guanidinophenyl)methyl)carbamate 2,2,2-trifluoroacetate] | – | – | – | – | – | – | – | – | 10 to 250 | 10 to 250 | > 250 | 10 to 250 | 2.5 to 10 | > 250 | > 250 | 10 to 250 | > 250 | 10 to 250 | 0.1 to 1 | 2.5 to 10 | IC50 (KLK2 (human)): 0.1 to 1 µM
3 | CCCCCC(=O)NCCOC(=O)NC(c1ccc(NC(=N)N)cc1)P(=O)(Oc1ccccc1)Oc1ccccc1 (stereo not drawn) [Compound 31, 2-hexanamidoethyl ((diphenoxyphosphoryl)(4-guanidinophenyl)methyl) carbamate 2,2,2-trifluoroacetaat] | – | – | – | – | – | – | – | – | 10 to 250 | 10 to 250 | > 250 | 10 to 250 | 10 to 250 | 10 to 250 | 10 to 250 | > 250 | > 250 | 10 to 250 | 0.1 to 1 | 2.5 to 10 | –
4 | N=C(N)Nc1ccc(C(NC(=O)OCCOCCOCc2cn(CCOCCOCCOCCNC(=O)CN3CCN(CC(=O)O)CCN(CC(=O)O)CCN(CC(=O)O)CC3)nn2)P(=O)(Oc2ccccc2)Oc2ccccc2)cc1 (stereo not drawn) [Compound 83, 2,2′,2″-(10-(14-(4-(1-(diphenoxyphosphoryl)-1-(4-guanidinophenyl)-3-oxo-4,7,10-trioxa-2-azaundecan-11-yl)-1H-1,2,3-triazol-1-yl)-2-oxo-6,9,12-trioxa-3-azatetradecyl)-1,4,7,10-tetraazacyclododecane-1,4,7-triyl)triacetic acid] | – | – | – | – | – | – | – | – | 2.5 to 10 | – | 10 to 250 | 2.5 to 10 | – | 10 to 250 | 10 to 250 | 10 to 250 | 2.5 to 10 | 10 to 250 | < 0.1 | 2.5 to 10 | –
5 | CCCCCCOC(=O)NC(c1ccc(NC(=N)N)cc1)P(=O)(Oc1ccccc1)Oc1ccccc1 (stereo not drawn) [Compound 92, Hexyl ((diphenoxyphosphoryl)(4-guanidinophenyl)methyl)carbamate] | – | – | – | – | – | – | – | – | 2.5 to 10 | 2.5 to 10 | – | 1 to 2.5 | 2.5 to 10 | 2.5 to 10 | 2.5 to 10 | 2.5 to 10 | 2.5 to 10 | 10 to 250 | < 0.1 | – | IC50 (KLK2 (human)): 0.1 to 1 µM
6 | CCN(CC)c1ccc2c(-c3ccccc3C(=O)N3CCN(C(=O)CCCCCCCn4cc(COCCOCCOC(=O)NC(c5ccc(NC(=N)N)cc5)P(=O)(Oc5ccccc5)Oc5ccccc5)nn4)CC3)c3ccc(=[N+](CC)CC)cc-3oc2c1 (stereo not drawn) [Compound 133, N-(6-(diethylamino)-9-(2-(4-(8-(4-(1-(diphenoxyphosphoryl)-1-(4-guanidinophenyl)-3-oxo-4,7,10-trioxa-2-azaundecan-11-yl)-1H-1,2,3-triazol-1-yl)octanoyl)piperazine-1-carbonyl)phenyl)-3H-xanthen-3-ylidene)-N-ethylethanaminium] | 2.5 to 10 | 10 to 250 | 10 to 250 | 10 to 250 | 2.5 to 10 | 10 to 250 | > 250 | < 0.1 | – | – | – | – | – | – | – | – | – | – | – | – | IC50 (Matriptase; Matriptase, read-out: IC50 MAT): 2.5 to 10 µM
